In patent US10537128B2, “Yeast, yeast extract containing gamma-Glu-Abu, and a method for producing the same” (AJINOMOTO CO., INC., priority 2010, dated 2020):

Legend:
[1] = system: kokumi (initial taste, middle-after taste) scored by panelists; test: quantitative organoleptic evaluation test of kokumi-imparting activity; format: in vivo, human; settings: for Intensity of kokumi, Initial taste: inosine monophosphate 0.05 g/dl, sodium chloride 0.5 g/dl; for Intensity of kokumi, Initial taste / Intensity of kokumi, Middle-after taste: score 0 control, 3 strong, 5 extremely strong, n=4
Protocol: Degree of kokumi-imparting activity of γ-Glu-Abu was investigated through a quantitative organoleptic evaluation test.
The quantitative organoleptic evaluation test was carried out as follows. Strength of the kokumi-imparting activity of a test compound was measured by using a mixture containing the test compound at 0.001 to 0.5 g/dl in distilled water containing sodium glutamate (0.05 g/dl), inosine monophosphate (0.05 g/dl), and sodium chloride (0.5 g/dl). A sample of the distilled water containing sodium glutamate, inosine monophosphate, and sodium chloride to which any test compound was not added was used as a no addition control. Samples that became acidic relative to the no addition control after dissolution of the test compound were used after pH of them was adjusted with NaOH to be within the range of ±0.2 from that of the no addition control.
The test was performed with organoleptic scores of 0 for the control, 3 for strong effect, and 5 for extremely strong effect, and n=4. Moreover, in order to make the criteria more definite, the scores of 0.001 g/dl of γ-Glu-Val-Gly for the initial taste and the middle-after taste were defined to be 3.0. The “middle-after taste” is a taste sensed in the periods for the middle taste and the aftertaste. Specifically, the initial taste, middle taste, and aftertaste are tastes sensed in the periods of 0 to 2 seconds, 2 to 5 seconds, and after 5 seconds, after eating, respectively, and the “middle-after taste” is a taste sensed in the period from 2 seconds to around 30 seconds. For the scoring, the linear scale method was used, in which determined scores were noted on a straight line on which positions of scores of from −5 to 5 were indicated. The panelists were consisted of persons who had experience of development of seasonings for foodstuffs for one year or longer in total, and could judge the difference of the titers of γ-Glu-Cys-Gly and γ-Glu-Val-Gly added to the tasty and salty solution to be about 10 times (this ability was periodically confirmed).
Kokumi-imparting activities of γ-Glu-Cys and other dipeptides were determined by the same quantitative organoleptic evaluation test as mentioned above.

CaSR = CaSR agonist activity; settings: previously found by the inventors
storage stability = format: physicochemical; settings: compared with γ-Glu-Cys
[2] = 0.01 g/dl in distilled water with sodium glutamate 0.05 g/dl
[3] = 0.01 g/dl in the same tasty and salty solution
[4] = 0.2 g/dl in distilled water with sodium glutamate 0.05 g/dl
[5] = 0.2 g/dl in the same tasty and salty solution

Chain of CaSR (P41180 20-1078): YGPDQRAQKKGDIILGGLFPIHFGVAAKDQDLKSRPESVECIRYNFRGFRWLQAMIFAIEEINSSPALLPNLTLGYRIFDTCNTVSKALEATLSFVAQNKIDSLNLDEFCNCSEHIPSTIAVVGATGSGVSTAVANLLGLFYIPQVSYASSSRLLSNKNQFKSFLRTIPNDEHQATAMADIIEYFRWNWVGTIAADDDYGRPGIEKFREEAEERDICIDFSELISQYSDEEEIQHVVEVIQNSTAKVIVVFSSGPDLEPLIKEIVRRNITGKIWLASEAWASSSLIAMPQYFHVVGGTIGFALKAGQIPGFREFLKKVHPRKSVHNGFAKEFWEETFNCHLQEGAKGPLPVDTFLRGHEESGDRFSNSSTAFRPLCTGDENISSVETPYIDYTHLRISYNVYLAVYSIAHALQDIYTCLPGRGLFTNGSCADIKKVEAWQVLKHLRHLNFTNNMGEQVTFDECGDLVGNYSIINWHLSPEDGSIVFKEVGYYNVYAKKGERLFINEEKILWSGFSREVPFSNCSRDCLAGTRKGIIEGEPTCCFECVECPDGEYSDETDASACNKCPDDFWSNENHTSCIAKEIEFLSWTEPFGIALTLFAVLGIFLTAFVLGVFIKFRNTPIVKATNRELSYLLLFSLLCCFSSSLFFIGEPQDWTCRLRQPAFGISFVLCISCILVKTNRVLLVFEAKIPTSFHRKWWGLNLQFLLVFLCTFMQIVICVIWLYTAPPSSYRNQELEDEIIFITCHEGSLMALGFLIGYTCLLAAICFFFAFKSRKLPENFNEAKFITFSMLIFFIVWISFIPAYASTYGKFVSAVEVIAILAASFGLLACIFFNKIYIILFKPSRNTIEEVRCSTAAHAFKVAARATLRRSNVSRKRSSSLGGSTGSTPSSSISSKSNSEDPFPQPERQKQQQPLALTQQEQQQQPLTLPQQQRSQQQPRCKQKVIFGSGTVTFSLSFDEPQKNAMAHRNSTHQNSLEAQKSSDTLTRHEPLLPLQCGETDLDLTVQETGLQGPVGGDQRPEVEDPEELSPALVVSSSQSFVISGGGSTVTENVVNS

Row | Compound | Intensity of kokumi, Initial taste [1, 2] | Intensity of kokumi, Middle-after taste [1, 3] | Intensity of kokumi, Initial taste [1, 4] | Intensity of kokumi, Middle-after taste [1, 5] | other results
1 | N[C@@H](CCC(=O)N[C@@H](CS)C(=O)O)C(=O)O [γ-Glu-Cys, γ-glutamylcysteine] | 3.1 | 3.1 | – | – | –
2 | C[C@H](NC(=O)CC[C@H](N)C(=O)O)C(=O)O [γ-Glu-Ala] | – | – | 4.5 | 4.3 | –
3 | N[C@@H](CCC(=O)N[C@@H](CO)C(=O)O)C(=O)O [γ-Glu-Ser] | – | – | 3.6 | 3.0 | –
4 | CC(C)[C@H](NC(=O)CC[C@H](N)C(=O)O)C(=O)O [γ-Glu-Val] | 3.1 | 2.4 | – | – | –
5 | L-γ-glutamyl-L-2-aminobutyric acid [γ-Glu-Abu] | – | – | – | – | CaSR agonist activity (in words) (CaSR): high CaSR agonist activity; Intensity of kokumi, Initial taste ([1]; 0.005 g/dl in distilled water with sodium glutamate 0.05 g/dl): 3.8; Intensity of kokumi, Middle-after taste ([1]; 0.005 g/dl in the same tasty and salty solution): 3.2; kokumi-imparting activity (in words) ([1]; addition concentration range 0.001 to 0.5 g/dl): showed kokumi-imparting activity in a broad range; kokumi titer (in words) ([1]; compared with γ-Glu-Ala): extremely high titer; storage stability (in words) (storage stability): superior storage stability
